Data: the supplement of paper PMC10307832

Experiments:
Assay in all cases: relative viability (nuclei count vs DMSO), 5 days (fraction); higher = more cells survive
201T = tested on: 201T
Method in brief: (§1)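 Relative viability is defined as nuclei in treated wells over nuclei in vehicle wells. Duplicate plates were run and medians reported. Lung cancer cell lines in 1536-well plates were dosed by pin tool one day after seeding, with one drug or with a fixed anchor-drug dose plus five library-drug doses (not always all listed) in √10 steps, and nuclei were counted after 5 days.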

A-427 = tested on: A-427
Method in brief: as §1

BEN = tested on: BEN
Method in brief: as §1

COR-L23 = tested on: COR-L23
Method in brief: as §1

EKVX = tested on: EKVX
Method in brief: as §1

HARA = tested on: HARA
Method in brief: as §1

HCC-15 = tested on: HCC-15
Method in brief: as §1

HCC-44 = tested on: HCC-44
Method in brief: as §1

HCC-827 = tested on: HCC-827
Method in brief: as §1

NCI-H1437 = tested on: NCI-H1437
Method in brief: as §1

NCI-H1650 = tested on: NCI-H1650
Method in brief: as §1

NCI-H1666 = tested on: NCI-H1666
Method in brief: as §1

NCI-H1792 = tested on: NCI-H1792
Method in brief: as §1

NCI-H1975 = tested on: NCI-H1975
Method in brief: as §1

NCI-H2342 = tested on: NCI-H2342
Method in brief: as §1

NCI-H23 = tested on: NCI-H23
Method in brief: as §1

NCI-H358 = tested on: NCI-H358
Method in brief: as §1

NCI-H441 = tested on: NCI-H441
Method in brief: as §1

NCI-H596 = tested on: NCI-H596
Method in brief: as §1

NCI-H650 = tested on: NCI-H650
Method in brief: as §1

NCI-H838 = tested on: NCI-H838
Method in brief: as §1

SK-MES-1 = tested on: SK-MES-1
Method in brief: as §1

SW 900 = tested on: SW 900
Method in brief: as §1

COc1nc(C)cnc1NS(=O)(=O)c1cccnc1-c1ccc(-c2nnco2)cc1 [Zibotentan] + CC(=O)Nc1cccc(-n2c(=O)n(C3CC3)c(=O)c3c(Nc4ccc(I)cc4F)n(C)c(=O)c(C)c32)c1 [Trametinib] (partner 0.02 µM)
relative viability (201T; first compound 0.08 µM): 0.714
relative viability (201T; first compound 0.253 µM): 0.714
relative viability (201T; first compound 0.8 µM): 0.734
relative viability (201T; first compound 2.53 µM): 0.746
relative viability (A-427; first compound 0.08 µM): 0.813
relative viability (A-427; first compound 0.253 µM): 0.72
relative viability (A-427; first compound 0.8 µM): 0.845
relative viability (A-427; first compound 2.53 µM): 0.83
relative viability (BEN; first compound 0.08 µM): 1.04
relative viability (BEN; first compound 0.253 µM): 0.926
relative viability (BEN; first compound 0.8 µM): 0.832
relative viability (BEN; first compound 2.53 µM): 0.979
relative viability (COR-L23; first compound 0.08 µM): 0.573
relative viability (COR-L23; first compound 0.253 µM): 0.531
relative viability (COR-L23; first compound 0.8 µM): 0.831
relative viability (COR-L23; first compound 2.53 µM): 0.555
relative viability (EKVX; first compound 0.08 µM): 0.33
relative viability (EKVX; first compound 0.253 µM): 0.364
relative viability (EKVX; first compound 0.8 µM): 0.315
relative viability (EKVX; first compound 2.53 µM): 0.321
relative viability (HARA; first compound 0.08 µM): 0.996
relative viability (HARA; first compound 0.8 µM): 0.414
relative viability (HARA; first compound 2.53 µM): 0.764
relative viability (HCC-15; first compound 0.08 µM): 0.397
relative viability (HCC-15; first compound 0.253 µM): 0.412
relative viability (HCC-15; first compound 0.8 µM): 0.414
relative viability (HCC-15; first compound 2.53 µM): 0.319
relative viability (HCC-44; first compound 0.08 µM): 1.11
relative viability (HCC-44; first compound 0.253 µM): 1
relative viability (HCC-44; first compound 0.8 µM): 0.953
relative viability (HCC-44; first compound 2.53 µM): 1.07
relative viability (HCC-827; first compound 0.08 µM): 0.503
relative viability (HCC-827; first compound 0.253 µM): 0.529
relative viability (HCC-827; first compound 0.8 µM): 0.491
relative viability (HCC-827; first compound 2.53 µM): 0.548
relative viability (NCI-H1437; first compound 0.08 µM): 0.533
relative viability (NCI-H1437; first compound 0.253 µM): 0.541
relative viability (NCI-H1437; first compound 0.8 µM): 0.455
relative viability (NCI-H1437; first compound 2.53 µM): 0.496
relative viability (NCI-H1650; first compound 0.08 µM): 0.533
relative viability (NCI-H1650; first compound 0.8 µM): 0.563
relative viability (NCI-H1650; first compound 2.53 µM): 0.557
relative viability (NCI-H1666; first compound 0.08 µM): 0.882
relative viability (NCI-H1666; first compound 0.253 µM): 0.779
relative viability (NCI-H1666; first compound 0.8 µM): 0.821
relative viability (NCI-H1666; first compound 2.53 µM): 0.863
relative viability (NCI-H1792; first compound 0.08 µM): 0.546
relative viability (NCI-H1792; first compound 0.253 µM): 0.479
relative viability (NCI-H1792; first compound 0.8 µM): 0.389
relative viability (NCI-H1792; first compound 2.53 µM): 0.537
relative viability (NCI-H1975; first compound 0.08 µM): 0.336
relative viability (NCI-H1975; first compound 0.253 µM): 0.355
relative viability (NCI-H1975; first compound 0.8 µM): 0.358
relative viability (NCI-H1975; first compound 2.53 µM): 0.34
relative viability (NCI-H2342; first compound 0.08 µM): 0.848
relative viability (NCI-H2342; first compound 0.253 µM): 0.78
relative viability (NCI-H2342; first compound 0.8 µM): 0.844
relative viability (NCI-H2342; first compound 2.53 µM): 1.16
relative viability (NCI-H23; first compound 0.08 µM): 0.403
relative viability (NCI-H23; first compound 0.253 µM): 0.305
relative viability (NCI-H23; first compound 0.8 µM): 0.349
relative viability (NCI-H23; first compound 2.53 µM): 0.48
relative viability (NCI-H358; first compound 0.08 µM): 0.15
relative viability (NCI-H358; first compound 0.253 µM): 0.109
relative viability (NCI-H358; first compound 2.53 µM): 0.145
relative viability (NCI-H441; first compound 0.08 µM): 0.454
relative viability (NCI-H441; first compound 0.253 µM): 0.408
relative viability (NCI-H441; first compound 0.8 µM): 0.544
relative viability (NCI-H441; first compound 2.53 µM): 0.471
relative viability (NCI-H596; first compound 0.08 µM): 0.801
relative viability (NCI-H596; first compound 0.253 µM): 0.8
relative viability (NCI-H596; first compound 0.8 µM): 0.791
relative viability (NCI-H596; first compound 2.53 µM): 0.714
relative viability (NCI-H650; first compound 0.08 µM): 1.06
relative viability (NCI-H650; first compound 0.253 µM): 1.04
relative viability (NCI-H650; first compound 0.8 µM): 0.967
relative viability (NCI-H650; first compound 2.53 µM): 0.844
relative viability (NCI-H838; first compound 0.08 µM): 0.525
relative viability (NCI-H838; first compound 0.253 µM): 0.454
relative viability (NCI-H838; first compound 0.8 µM): 0.487
relative viability (NCI-H838; first compound 2.53 µM): 0.508
relative viability (SK-MES-1; first compound 0.08 µM): 0.581
relative viability (SK-MES-1; first compound 0.253 µM): 0.533
relative viability (SK-MES-1; first compound 0.8 µM): 0.563
relative viability (SK-MES-1; first compound 2.53 µM): 0.556
relative viability (SW 900; first compound 0.08 µM): 0.893
relative viability (SW 900; first compound 0.253 µM): 0.817
relative viability (SW 900; first compound 0.8 µM): 0.846
relative viability (SW 900; first compound 2.53 µM): 0.751
